Measurements from paper PMC11561238, “Discovery and binding mode of small molecule inhibitors of the apo form of human TDO2” (Scientific Reports, 2024).
Values joined by “and” are separate entries in the source; they are usually repeats but may differ in a detail not shown here. Equal values may be shown once. Read-outs that look alike come from different tables or passages of the source.

Assays:
[1] = system: SW48 cells; assay: SW48 cell viability assay (CellTiter-Glo); assay type: cell-based; details: Homo sapiens
Description: (§1) The inhibitor compound 1 (Cpd-1) (IUPAC name ethyl 9-(3-(2-propylphenyl)-1-(1-phenylethyl)ureido)-2-methoxy-4-oxo-6,7,8,9-tetrahydro-4H-pyrido[1,2-a]pyrimidine-3-carboxylate) was identified as a hit in a high throughput screening campaign of a diverse set of 244,625 compounds in a human TDO2 cellular assay utilizing SW48 cells, which express a high level of endogenous TDO2. TDO2 activity was assessed by measuring the accumulation of the TDO2 product NFK and downstream product KYN in the supernatant. The potent inhibitor compound 2 (Cpd-2) (IUPAC name ethyl 9-(3-(2-isopropylphenyl)-1-((S)-1-phenylethyl)ureido)-2-methoxy-4-oxo-6,7,8,9-tetrahydro-4H-pyrido[1,2-a]pyrimidine-3-carboxylate) was identified during initial structure activity relationship studies of Cpd-1 analogs.
As inhibition of NFK and KYN production can simply be an effect of cytotoxicity, a viability assay (CellTiter-Glo 2.0 Luminescent Cell Viability Assay, Promega Catalog # G9243) was performed in parallel. CellTiter-Glo reagent was added (25 µl/well) to SW48 cell plates, incubated for 15 min at room temperature in the dark and luminescence was measured with the EnVision Multilabel Reader from Perkin Elmer according to the manufacturer’s instructions. […] For each compound concentration the percentage of activity compared to 0% and 100% effect was calculated as average ± STDEV (each concentration measured in duplicate). […]

[2] = target: T1, human TDO2 (Homo sapiens, UniProt P48775); assay: TDO2 cellular activity assay (SW48 cells, NFK + KYN in supernatant by LCMS); assay type: cell-based; details: 24 h, 200 µM Trp
T1 construct: SW48 cells, which express a high level of endogenous TDO2; endogenous in cells; host or cells: SW48 cells (ATCC CCL-231)
Description: as §1
SW48 cells (source: American Type Culture Collection (ATCC), CCL-231) were used to measure the TDO2 inhibitory activity of compounds and were routinely maintained in DMEM high glucose/GlutaMAX^TM/pyruvate (Gibco, 10569010) 90% (v/v), FCS (Gibco, 10500, heat inactivated)10% (v/v), Penicillin/streptomycin (Gibco, 15140) 1% (v/v). […]
The 384 deep well plate containing 3 µl supernatant and 25 µl H2O per well were further processed for LCMS. […] NFK and kynurenine were quantified by LCMS, normalized to the internal standard Trp-(indole-d5) and the sum was calculated. […]

[3] = target: T2, apo-TDO2 (Homo sapiens, UniProt P48775); assay: Differential scanning fluorimetry (thermal shift) of apo-TDO2; assay type: binding; details: for Δ Tm Boltzmann / Δ Tm Derivative: 25 µM; for Δ Tm Boltzmann / Δ Tm Derivative / Tm Boltzmann / Tm Derivative: in °C
T2 construct: a longer construct (His6-aa19-406, with aa406 corresponding to the wild type C-terminal residue), which was used for DSF and other experiments; made in house; host or cells: E. coli RP523 (hemB mutant, unable to synthesize heme)
Description: […] S5 online).
Protein thermal stability and small molecule ligand binding of TDO2 in vitro was studied using differential scanning fluorimetry (DSF, also known as thermal shift assay)[34]. Assay ingredients and ligands were combined to obtain a mixture composed of 10 µM TDO2 and 10x SYPRO Orange, in assay buffer (50 mM HEPES-NaOH pH 8.0, 200 mM NaCl, 2 mM TCEP, 10% glycerol) and 2% final DMSO concentration. Small molecule chemical ligands were taken from DMSO stock solution (100 mM, 10 mM) and diluted in DMSO transferred to wells of PCR Plates (Micro Amp Fast 96-well Reaction Plates, Applied Biosystems) to ensure matching final DMSO concentrations.
DSF was carried out with a StepOnePlus™ real time PCR system. Thermal denaturation of TDO2 was monitored with a ramp rate of 1 K/min. Protein melting curves were evaluated using the Thermal Shift Software v 1.3. (Thermo Fisher Scientific) to derive differences in midpoint melting-temperatures (derivative model). The thermal shift (DTm) is documented as the difference between the reference midpoint melting temperature of proteins (containing 500 µM AMT) in the presence of the ligand vehicle (DMSO) and in the presence of ligand.
Supplementary Table S2. Differential scanning fluorimetry data corresponding to supplementary figure S4. The experiments were carried out in quadruplicate, or in triplicate where single outlier values (highlighted in bold italics) were excluded from calculation of the melting curves. AMT was added at a concentration of 500 µM; […] and […] were added at a concentration of 25 µM.

[4] = 25 µM compound with 500 µM AMT, compared to 59.2 °C in the absence of inhibitor, read-out: increase of the melting temperature of apo-TDO2
[5] = apo-TDO2 + 25 µM compound, no AMT, shift vs apo, single replicates
[6] = apo-TDO2 + 25 µM compound, no AMT, shift vs apo, single replicates, read-out: Δ Tm Boltzmann
[7] = apo-TDO2 + 25 µM compound, no AMT, shift vs apo, single replicates, read-out: Δ Tm Derivative
[8] = apo-TDO2 + 25 µM compound, no AMT, single replicates

T2 sequence (P48775 19-406): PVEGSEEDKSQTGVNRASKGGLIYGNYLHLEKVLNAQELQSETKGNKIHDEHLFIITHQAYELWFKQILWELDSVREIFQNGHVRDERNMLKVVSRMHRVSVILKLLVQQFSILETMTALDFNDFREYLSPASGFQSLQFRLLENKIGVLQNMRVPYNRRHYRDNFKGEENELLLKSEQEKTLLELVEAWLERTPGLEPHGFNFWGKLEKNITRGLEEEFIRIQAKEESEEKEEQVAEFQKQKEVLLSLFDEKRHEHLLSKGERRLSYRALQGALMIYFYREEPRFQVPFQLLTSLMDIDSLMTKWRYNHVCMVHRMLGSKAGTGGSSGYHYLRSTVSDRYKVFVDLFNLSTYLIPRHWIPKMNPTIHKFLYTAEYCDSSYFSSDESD
T1 sequence (P48775 whole entry): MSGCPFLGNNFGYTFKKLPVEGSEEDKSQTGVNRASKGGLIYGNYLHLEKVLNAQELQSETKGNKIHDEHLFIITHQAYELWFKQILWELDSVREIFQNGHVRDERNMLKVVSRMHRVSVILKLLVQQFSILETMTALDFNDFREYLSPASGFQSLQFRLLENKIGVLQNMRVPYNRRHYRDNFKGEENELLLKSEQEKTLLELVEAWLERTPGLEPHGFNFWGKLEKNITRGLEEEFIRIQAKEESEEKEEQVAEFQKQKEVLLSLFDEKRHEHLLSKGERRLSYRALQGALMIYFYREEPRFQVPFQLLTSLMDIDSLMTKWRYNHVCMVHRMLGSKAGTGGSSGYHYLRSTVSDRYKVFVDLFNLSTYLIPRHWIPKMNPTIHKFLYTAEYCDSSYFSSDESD

IC50 [1]	IC50 [2]	ΔTm at 25 µM [3, 4]	Δ Tm Boltzmann [3, 5]	Δ Tm Derivative [3, 5]	ΔTm at 25 µM [3, 6]	ΔTm at 25 µM [3, 7]	Tm Boltzmann [3, 8]	Tm Derivative [3, 8]	Structure (SMILES)
> 10000 nM	14.8 nM	14.5 °C	21.65 and 21.58 and 21.17	21.51 and 21.53 and 21.2	21.4 °C	21.5 °C	70.45	70.37 and 70.39 and 70.41 and 70.08	CCOC(=O)c1c(OC)nc2n(c1=O)CCCC2N(C(=O)Nc1ccccc1C(C)C)[C@@H](C)c1ccccc1 (mixture of isomers) [Cpd-2, ethyl 9-(3-(2-isopropylphenyl)-1-((S)-1-phenylethyl)ureido)-2-methoxy-4-oxo-6,7,8,9-tetrahydro-4H-pyrido[1,2-a]pyrimidine-3-carboxylate]
> 10000 nM	327 nM	11.2 °C	11.41 and 11.37 and 11.43	7.28 and 6.95 and 6.97	10.3 °C	6.57 °C	59.1 and 60.21 and 60.17 and 60.23	55.45 and 56.16 and 55.84 and 55.85	CCCc1ccccc1NC(=O)N(C(C)c1ccccc1)C1CCCn2c1nc(OC)c(C(=O)OCC)c2=O (stereo not drawn) [Cpd-1, ethyl 9-(3-(2-propylphenyl)-1-(1-phenylethyl)ureido)-2-methoxy-4-oxo-6,7,8,9-tetrahydro-4H-pyrido[1,2-a]pyrimidine-3-carboxylate]
